# Measurements as given in US20050113450A1, “Antibacterial agents” (priority 2002, published 2005).
# System: SA 9218
# Assay: MIC by standard agar dilution method
# Format: cell-based
# Details: Mueller Hinton agar, 10^4 to 10^5 cells per spot, incubated overnight at 35° C., lowest concentration that inhibits visible growth
# Summary of the method: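 Agar dilution: two-fold compound dilutions mixed into molten Mueller Hinton agar, spots of ~10^4–10^5 cells from 0.5 McFarland suspension diluted 1:20 in TSB. Incubated overnight at 35 °C; MIC is lowest concentration inhibiting visible growth.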
Compound,SA 9218 MIC [µg/mL],MIC [µg/mL]
CC(C(O)c1ccccc1)N(C)S(=O)(=O)c1cccc(C(=O)Nc2ccc(C#N)cc2C(=O)O)c1 (centres unmarked) [PHA-571272],32,
CC1CCN(S(=O)(=O)c2cccc(C(=O)Nc3ccc(C#N)cc3C(=O)O)c2)CC1 [PHA-571273],,8
O=C1CCC(COc2cccc(C(=O)Nc3ccc(Br)cc3C(=O)O)c2)N1 (centres unmarked) [PHA-571280],>128,
O=C1CCC(COc2cccc(C(=O)Nc3ccc(Br)cc3C(=O)O)c2)N1 (centres unmarked) [PHA-571281],,128
COc1cc(COc2cccc(C(=O)Nc3ccc(Br)cc3C(=O)O)c2)ccc1[N+](=O)[O-] [PHA-571282],,16
COC(=O)c1ccc(COc2cccc(C(=O)Nc3ccc(Br)cc3C(=O)O)c2)cc1 [PHA-571283],,16
O=C(Nc1ccc(Br)cc1C(=O)O)c1cccc(OC2CCOC2=O)c1 (centres unmarked) [PHA-571285],,64
CC(C)(C)OC(=O)NC(COc1cccc(C(=O)Nc2ccc(Br)cc2C(=O)O)c1)c1ccccc1 (centres unmarked) [PHA-571287],,2
CCOC(=O)C1CCC(Oc2cccc(C(=O)Nc3ccc(Br)cc3C(=O)O)c2)CC1 (centres unmarked) [PHA-571289],,32
C=CCC(CC=C)Oc1ccc(C(=O)Nc2ccc(Br)cc2C(=O)O)cc1 [PHA-571292],,32
O=C(Nc1ccc(Cl)cc1C(=O)O)c1cccc(S(=O)(=O)N2CCOCC2)c1 [PHA-571395],,4
O=C(Nc1ccc(Br)cc1C(=O)O)c1cccc(S(=O)(=O)N2CCOCC2)c1 [PHA-571396],,4
O=C(Nc1ccc([N+](=O)[O-])cc1C(=O)O)c1cccc(S(=O)(=O)N2CCOCC2)c1 [PHA-571397],,4
O=C(Nc1ccc(I)cc1C(=O)O)c1cccc(S(=O)(=O)N2CCOCC2)c1 [PHA-571458],,4
"N#Cc1ccc(NC(=O)c2cccc(Nc3ccccc3)c2)c(C(=O)O)c1 [PHA-610938, 2-[(3-Anilinobenzoyl)amino]-5-cyanobenzoic acid]",,1
O=C(Nc1ccc(-c2ccc(C(F)(F)F)cc2)cc1C(=O)O)c1cccc(S(=O)(=O)N2CCOCC2)c1 [PHA-610940],,> 128
COc1ccc(-c2ccc(NC(=O)c3cccc(S(=O)(=O)N4CCOCC4)c3)c(C(=O)O)c2)cc1 [PHA-610941],,> 128
O=C(Nc1ccc(-c2ccccc2)cc1C(=O)O)c1cccc(S(=O)(=O)N2CCOCC2)c1 [PHA-610942],,> 128
CN(c1ccc(Cl)cc1)S(=O)(=O)c1cccc(C(=O)Nc2ccc(Cl)cc2C(=O)O)c1 [PHA-615551],,1

Compound,SA 9218 MIC [µg/mL],MIC [µg/mL]
N#Cc1ccc(NC(=O)c2cccc(S(=O)(=O)n3cnc4ccccc43)c2)c(C(=O)O)c1 [PHA-630330],,0.5
O=C(Nc1ccc(Br)cc1C(=O)O)c1cccc(S(=O)(=O)n2ccc3cccnc32)c1 [PHA-630331],,2
N#Cc1ccc(NC(=O)c2cccc(SCc3ccccc3)c2)c(C(=O)O)c1 [PHA-630368],,0.5
N#Cc1ccc(NC(=O)c2cccc(S(=O)(=O)C3CCCC3)c2)c(C(=O)O)c1 [PHA-630426],,> 128
N#Cc1ccc(NC(=O)c2cccc([S+]([O-])C3CCCC3)c2)c(C(=O)O)c1 (centres unmarked) [PHA-630427],,4
CC(C)(C)N1C(=O)c2ccc(C(=O)Nc3ccc(C#N)cc3C(=O)O)cc2C1=O [PHA-630726],,4
"N#Cc1ccc(NC(=O)c2cccc(CS(=O)(=O)N3CCCC3)c2)c(C(=O)O)c1 [PHA-630852, 5-cyano-2-({3-[(1-pyrrolidinylsulfonyl)methyl]benzoyl}amino)benzoic acid]",,4
N#Cc1ccc(NC(=O)c2cc(Br)cc(S(=O)(=O)N3CCc4ccccc43)c2)c(C(=O)O)c1 [PHA-630965],,0.25
CN(c1ccc(Cl)cc1)S(=O)(=O)c1cc(Br)cc(C(=O)Nc2ccc(C#N)cc2C(=O)O)c1 [PHA-630966],,0.25
CC(C)(C)N1C(=O)c2ccc(C(=O)Nc3ccc(Br)cc3C(=O)O)cc2C1=O [PHA-630989],,4
CN(c1ccc(Cl)cc1)S(=O)(=O)c1cc(Br)cc(C(=O)Nc2ccc(Br)cc2C(=O)O)c1 [PHA-631082],,0.25
N#Cc1ccc(NC(=O)c2cccc(S(=O)(=O)NC3CCc4ccccc43)c2)c(C(=O)O)c1 (centres unmarked) [PHA-656807],,64
N#Cc1ccc(NC(=O)c2cccc(S(=O)(=O)N(CCO)Cc3ccccc3)c2)c(C(=O)O)c1 [PHA-656808],,64
CN(CC(O)c1ccccc1)S(=O)(=O)c1ccc(C(=O)Nc2ccc(C#N)cc2C(=O)O)cc1 (centres unmarked) [PHA-656809],,64
N#Cc1ccc(NC(=O)c2cccc(S(=O)(=O)N3CCN(c4ccc([N+](=O)[O-])cc4)CC3)c2)c(C(=O)O)c1 [PHA-656810],,2
CC(C)CN(CC(C)C)S(=O)(=O)c1ccc(C(=O)Nc2ccc(C#N)cc2C(=O)O)cc1 [PHA-656811],,32
O=C(Nc1ccc(-c2ccc(Cl)cc2)cc1C(=O)O)c1cccc(S(=O)(=O)N2CCOCC2)c1 [PHA-656820],,> 128
CCCCN(CCO)S(=O)(=O)c1cccc(C(=O)Nc2ccc(C#N)cc2C(=O)O)c1 [PHA-656859],,16
N#Cc1ccc(NC(=O)c2cccc(S(=O)(=O)Nc3ccc4c(c3)CCC4)c2)c(C(=O)O)c1 [PHA-656860],,8
